These are literature values, as cited in patent US7970581B2, “Methods of calculating differences of binding affinities between congeneric pairs of ligands by way of a displaced solvent functional” (The Trustees of Columbia University in the City of New York, priority 2007, dated 2011).

factor Xa, sequence (P00742 235-488 limits assumed): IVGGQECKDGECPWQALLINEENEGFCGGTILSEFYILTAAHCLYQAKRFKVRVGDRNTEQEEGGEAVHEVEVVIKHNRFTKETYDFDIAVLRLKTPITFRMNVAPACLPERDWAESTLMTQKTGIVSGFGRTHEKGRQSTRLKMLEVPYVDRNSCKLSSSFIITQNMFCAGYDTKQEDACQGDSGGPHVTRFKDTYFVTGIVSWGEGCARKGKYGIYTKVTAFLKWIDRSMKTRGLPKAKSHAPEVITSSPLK
factor Xa, sequence (P00742 41-179 partner limits assumed): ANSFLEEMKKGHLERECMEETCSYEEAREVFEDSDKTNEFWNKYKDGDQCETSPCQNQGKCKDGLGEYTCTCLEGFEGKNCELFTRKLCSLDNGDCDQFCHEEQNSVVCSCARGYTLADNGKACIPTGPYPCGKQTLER

The series addresses factor Xa (Homo sapiens, UniProt P00742). The following applies: experimental binding free energy of crystal structure ligand.
For `COc1cccc(Cn2c(C(=O)NC3CCN(C(C)C)CC3)cc3ccccc32)c1` [2BQ7:IID], the ΔGexp is -9.62 kcal/mol.
For `Cc1cc(C)cc(CNC(=O)c2cc3c(C)cccc3n2Cc2cccc(C(=N)N)c2)c1` [1LQD:CMI], the ΔGexp is -10.98 kcal/mol.
Regarding `COc1ccc(C(=O)NCC2CCN(c3ccncc3)CC2)cc1OCCc1cc(Cl)cc(Cl)c1` [2BMG:I1H], the ΔGexp is -10.57 kcal/mol.
For `COc1cc(Cl)cc(C(=O)Nc2ccc(Cl)cn2)c1NC(=O)c1scc(C/[N+](C)=C2\NCCO2)c1Cl` [1MQ6:XLD], the ΔGexp was -15.22 kcal/mol.
As for `CN1CCN(Cc2csc(C(=O)Nc3ccc(Cl)cc3C(=O)Nc3ccc(Cl)cc3)c2Cl)CC1` [1MQ5:XLC], the ΔGexp is -12.28 kcal/mol.
With `CC(C)N1CCC(NC(=O)c2cc3ccccc3n2-c2cc(-c3ccc(Cl)s3)on2)CC1` [2BOH:IIA], the ΔGexp is -11.63 kcal/mol.
For `N=C(N)c1ccc(CN2CCN(S(=O)(=O)c3cc4ccc(Cl)cc4s3)CC2=O)cc1` [1NFY:RTR], the ΔGexp is -12.12 kcal/mol.
For the compound `CCOC(=O)CO/N=C(\c1ccccn1)C1(c2ccc3c(c2)nc(CNc2ccc(C(=N)N)cc2)n3C)CC1` [1G2L:T87], the ΔGexp was -9.88 kcal/mol.
Consider `Cc1nc2ccccc2n1Cc1ccc2c(c1)nc(CNc1ccc(C(=N)N)cc1)n2C` [1G2M:R11], for which the ΔGexp was -10.09 kcal/mol.
As to `CC(C)N1CCC(NC(=O)c2cc3ccccc3n2CC(=O)Nc2ccc(Cl)cc2)CC1` [2BQW:IIE], the ΔGexp is -11.63 kcal/mol.
